Values quoted from earlier work as cited in US8183227B1, “Compositions, kits and methods for nutrition supplementation” (Chemo S. A. France, priority 2011, dated 2012).

Settings: intake of about 1000 IU per day, all adults

For C=C1CC[C@H](O)C/C1=C/C=C1\CCC[C@]2(C)[C@@H]([C@H](C)CCCC(C)C)CC[C@@H]12 [vitamin D3, cholecalciferol], the “share of the population brought up to the 30 ng/ml serum range for 25-hydroxyvitamin D” value is given as “at least 50 % of the population”.
